Data: patent publication US7799821B2, “Therapeutic compounds” (Allergan, Inc., priority 2004, dated 2010)
Where two headings read alike, the source gives them in different places.

What was measured:
hEP2/Gqs5 = biological target: T1, hEP2/Gqs5 (Homo sapiens, UniProt P43116); assay: FLIPR calcium signal, hEP2; assay type: cell-based
T1 construct: expressed in transfected cells; host or cells: HEK-293(EBNA)
Procedure: (§1) HEK-293(EBNA) cells, stably expressing one type or subtype of recombinant human prostaglandin receptors (prostaglandin receptors expressed: hDP/Gqs5; hEP1; hEP2/Gqs5; hEP3A/Gqi5; hEP4/Gqs5; hFP; hIP; hTP), were cultured in 100 mm culture dishes in high-glucose DMEM medium containing 10% fetal bovine serum, 2 mM 1-glutamine, 250 μg/ml geneticin (G418) and 200 μg/ml hygromycin B as selection markers, and 100 units/ml penicillin G, 100 μg/ml streptomycin and 0.25 μg/ml amphotericin B. • (b) Calcium Signal Studies on the FLIPR™
(§2) Cells were seeded at a density of 5×10^4 cells per well in Biocoat® Poly-D-lysine-coated black-wall, clear-bottom 96-well plates (Becton-Dickinson) and allowed to attach overnight in an incubator at 37° C. Cells were then washed two times with HBSS-HEPES buffer (Hanks Balanced Salt Solution without bicarbonate and phenol red, 20 mM HEPES, pH 7.4) using a Denley Cellwash plate washer (Labsystems). After 45 minutes of dye-loading in the dark, using the calcium-sensitive dye Fluo-4 AM at a final concentration of 2 μM, plates were washed four times with HBSS-HEPES buffer to remove excess dye leaving 100 μl in each well. Plates were re-equilibrated to 37° C. for a few minutes.
(§3) Cells were excited with an Argon laser at 488 nm, and emission was measured through a 510-570 nm bandwidth emission filter (FLIPR™, Molecular Devices, Sunnyvale, Calif.). Drug solution was added in a 50 μl volume to each well to give the desired final concentration. The peak increase in fluorescence intensity was recorded for each well. On each plate, four wells each served as negative (HBSS-HEPES buffer) and positive controls (standard agonists: BW245C (hDP); PGE2 (hEP1; hEP2/Gqs5; hEP3A/Gqi5; hEP4/Gqs5); PGF2α (hFP); carbacyclin (hIP); U-46619 (hTP), depending on receptor). The peak fluorescence change in each drug-containing well was then expressed relative to the controls.
(§4) Compounds were tested in a high-throughput (HTS) or concentration-response (CoRe) format. In the HTS format, forty-four compounds per plate were examined in duplicates at a concentration of 10^−5 M. To generate concentration-response curves, four compounds per plate were tested in duplicates in a concentration range between 10^−5 and 10^−11 M. The duplicate values were averaged. In either, HTS or CoRe format each compound was tested on at least 3 separate plates using cells from different passages to give an n≧3.

hEP3A/Gqi5 = biological target: T2, hEP3A/Gqi5 (Homo sapiens, UniProt P43115); assay: FLIPR calcium signal, hEP3A; assay type: cell-based
T2 construct: expressed in transfected cells; host or cells: HEK-293(EBNA)
T2 sequence (P43115 1-390): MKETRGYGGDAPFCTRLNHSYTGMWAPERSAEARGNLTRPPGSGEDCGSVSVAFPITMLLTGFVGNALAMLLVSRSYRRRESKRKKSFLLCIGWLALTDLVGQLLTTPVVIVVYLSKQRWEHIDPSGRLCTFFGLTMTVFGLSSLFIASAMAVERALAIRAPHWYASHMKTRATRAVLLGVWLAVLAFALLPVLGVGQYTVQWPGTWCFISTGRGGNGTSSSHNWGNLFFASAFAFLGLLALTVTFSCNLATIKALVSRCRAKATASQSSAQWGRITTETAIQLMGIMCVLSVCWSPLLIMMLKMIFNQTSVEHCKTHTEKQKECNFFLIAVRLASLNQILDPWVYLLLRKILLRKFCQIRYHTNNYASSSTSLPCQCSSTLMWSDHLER
Procedure: as §1, §2, §3, §4

hEP4/Gqs5 = biological target: T3, hEP4/Gqs5 (Homo sapiens, UniProt P35408); assay: FLIPR calcium signal, hEP4; assay type: cell-based
T3 construct: expressed in transfected cells; host or cells: HEK-293(EBNA)
T3 sequence (P35408 whole entry): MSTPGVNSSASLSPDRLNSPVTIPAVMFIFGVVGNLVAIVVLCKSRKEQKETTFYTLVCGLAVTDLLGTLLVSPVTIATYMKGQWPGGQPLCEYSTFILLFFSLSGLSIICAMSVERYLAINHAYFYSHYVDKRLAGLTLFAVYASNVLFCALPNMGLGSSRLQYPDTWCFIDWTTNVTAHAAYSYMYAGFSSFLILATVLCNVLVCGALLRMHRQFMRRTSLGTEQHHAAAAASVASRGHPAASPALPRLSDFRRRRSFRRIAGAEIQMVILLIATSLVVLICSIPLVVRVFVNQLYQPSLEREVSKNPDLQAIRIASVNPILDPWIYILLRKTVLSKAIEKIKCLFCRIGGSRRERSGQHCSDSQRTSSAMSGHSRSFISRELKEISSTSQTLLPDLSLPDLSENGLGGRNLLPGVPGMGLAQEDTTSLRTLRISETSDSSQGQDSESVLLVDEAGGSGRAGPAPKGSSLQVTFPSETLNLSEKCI
Procedure: as §1, §2, §3, §4

human EP2 receptors = biological target: T4, human EP2 receptors (Homo sapiens, UniProt P43116); assay: Competition radioligand binding ([3H]PGE2), EP2; conditions: for Ki: unit inferred, read-out: EP2 data Ki
T4 construct: expressed in transfected cells; host or cells: HEK 293
T4 sequence (P43116 whole entry): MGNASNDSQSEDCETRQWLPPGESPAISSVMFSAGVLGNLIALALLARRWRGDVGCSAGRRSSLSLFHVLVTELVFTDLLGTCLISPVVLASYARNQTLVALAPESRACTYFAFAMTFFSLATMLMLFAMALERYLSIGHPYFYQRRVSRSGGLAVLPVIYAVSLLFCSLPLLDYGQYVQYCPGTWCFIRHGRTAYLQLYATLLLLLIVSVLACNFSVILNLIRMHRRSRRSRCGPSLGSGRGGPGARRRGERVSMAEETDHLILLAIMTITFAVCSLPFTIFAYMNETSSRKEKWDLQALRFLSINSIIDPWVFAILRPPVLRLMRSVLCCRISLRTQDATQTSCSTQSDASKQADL
Procedure: Competition binding experiments were performed in a medium containing Hank's balanced salt solution, […], membranes (˜60 μg protein) or 2×10^5 cells from HEK 293 cells stably expressing human EP2 receptors, [^3H]PGE2 (10 nM) and various concentrations of test compounds in a total volume of 300 μl. Reaction mixtures were incubated at 23° C. for 60 min, and were filtered over Whatman GF/B filters under vacuum. Filters were washed three times with 5 ml ice-cold buffer containing 50 mM Tris/HCl (pH 7.3). Non-specific binding was estimated in the presence of excess unlabeled PGE2 (10 μM). Binding data fitted to the binding model for a single class of binding sites, using nonlinear regression analysis. IC50 values thus obtained were converted to Ki using the equation of Ki=(IC50/(1+[L]/KD) where [L] represents PGE2 concentration (10 nM) and KD the dissociation constant for [^3H]PGE2 at human EP2 receptors (40 nM).
(§5) HEK-293 cells stably expressing the human or feline FP receptor, or EP1, EP2, or EP4 receptors were washed with TME buffer, scraped from the bottom of the flasks, and homogenized for 30 sec using a Brinkman PT 10/35 polytron. TME buffer was added to achieve a final 40 ml volume in the centrifuge tubes (the composition of TME is 100 mM TRIS base, 20 mM MgCl2, […]; 10N HCl is added to achieve a pH of 7.4).
(§6) The cell homogenate was centrifuged at 19000 r.p.m. for 20 min at 4° C. using a Beckman Ti-60 rotor. The resultant pellet was resuspended in TME buffer to give a final 1 mg/ml protein concentration, as determined by Biorad assay. Radioligand binding competition assays vs. [^3H-]17 —phenyl PGF2α (5 nM) were performed in a 100 μl volume for 60 min. Binding reactions were started by adding plasma membrane fraction. The reaction was terminated by the addition of 4 ml ice-cold TRIS-HCl buffer and rapid filtration through glass fiber GF/B filters using a Brandel cell harvester. The filters were washed 3 times with ice-cold buffer and oven dried for one hour.
(§7) [^3H-] PGE2 (specific activity 180 Ci mmol) was used as the radioligand for EP receptors. [^3H] 17-phenyl PGF2α was employed for FP receptor binding studies. Binding studies employing EP1, EP2, EP4 and FP receptors were performed in duplicate in at least three separate experiments. A 200 μl assay volume was used. Incubations were for 60 min at 25° C. and were terminated by the addition of 4 ml of ice-cold 50 mM TRIS-HCl, followed by rapid filtration through Whatman GF/B filters and three additional 4 ml washes in a cell harvester (Brandel). Competition studies were performed using a final concentration of 5 nM [^3H]—PGE2, or 5 nM [^3H] 17-phenyl PGF2α and non-specific binding determined with 10^−5M of unlabeled PGE2, or 17-phenyl PGF2α, according to receptor subtype studied.

EP4 receptors = biological target: T5, EP4 receptors (Homo sapiens, UniProt P35408); assay: Radioligand binding ([3H]PGE2), EP4; conditions: unit inferred; read-out: EP4 data KI
T5 construct: expressed in transfected cells; host or cells: HEK-293
T5 sequence (P35408 whole entry): as the sequence (P35408 whole entry) above
Procedure: as §5, §6, §7

[1] = biological target: T6, HEK-EBNA cells expressing a PG EP2 receptor subtype (Homo sapiens, UniProt P43116); assay: cAMP assay, EP2; assay type: cell-based; conditions: unit inferred; read-out: EP2 data cAMP EC50
T6 construct: expressed in transfected cells; host or cells: HEK-EBNA
T6 sequence (P43116 whole entry): as the sequence (P43116 whole entry) above
Procedure: A 384-well drug plate was prepared to contain 6 test compounds, PGE2 and cAMP in 16 serial dilutions in triplicate, using a Biomek station. HEK-EBNA cells expressing a target PG receptor subtype (EP2 or EP4) were suspended in a stimulation buffer (HBSS, 0.1% BSA, 0.5 mM IBMX and 5 mM HEPES, pH 7.4) in a density of 10^4 cells/5 μl. The reaction was initiated by mixing 5 μL drug dilutions with 5 μl of HEK-EBNA cells in a well, carried out for 30 min at room temperature, and followed by the addition of 5 μl anti-cAMP acceptor beads in the control buffer with Tween-20 (25 mM NaCl, 0.03% Tween-20, 5 mM HEPES, pH7.4). After 30 min in the dark at room temperature, the mixtures were incubated with 15 μl biotinylated-cAMP/strepavidin donor beads in Lysis/Detection buffer (0.1% BSA, 0.3% Tween-20 and 5 mM HEPES, pH7.4) for 45 min at the room temperature. Fluorescence changes were read using a Fusion-alpha HT microplate reader.

[2] = FLIPR Ca2+ signal, HEK-293(EBNA), read-out: FUNCTIONAL EC50 HEP2
[3] = FLIPR Ca2+ signal, HEK-293(EBNA), read-out: FUNCTIONAL EC50 HEP3A
[4] = FLIPR Ca2+ signal, HEK-293(EBNA), read-out: FUNCTIONAL EC50 HEP4
[5] = unit inferred, other columns of the table in nM, read-out: EP2 data flipr EC50
[6] = unit inferred, read-out: EP4 data flipr EC50
[7] = read-out: Other Receptors EC50 hEP3A

T1 sequence (P43116 whole entry): as above

| SMILES | Ki (EP4 receptors) [nM] | EC50 (hEP2/Gqs5; [5]) [nM] | EC50 [1] [nM] | Ki (human EP2 receptors) [nM] | further results |
| --- | --- | --- | --- | --- | --- |
| CCCC1(C(O)c2cccc([C@H]3[C@H](O)CC(=O)[C@@H]3C/C=C\CCCC(=O)OC)c2)CCC1 (stereo partly shown) |  |  |  |  | EC50 (hEP2/Gqs5; [2]): > 10000 nM; EC50 (hEP3A/Gqi5; [3]): > 10000 nM; EC50 (hEP4/Gqs5; [4]): > 10000 nM |
| CCCC1(C(O)c2cccc([C@H]3[C@H](O)CC(=O)[C@@H]3C/C=C\CCCC(=O)O)c2)CCC1 (stereo partly shown) |  |  |  |  | EC50 (hEP2/Gqs5; [2]): 5290 nM; EC50 (hEP3A/Gqi5; [3]): 1700 nM |
| CCCC1(C(O)c2cccc([C@@H]3[C@@H](CCCCCCC(=O)O)[C@H](Cl)C[C@H]3O)c2)CCC1 (stereo partly shown) |  |  |  |  | EC50 (hEP2/Gqs5; [2]): 1480 nM; EC50 (hEP3A/Gqi5; [3]): 3120 nM |
| COC(=O)CCC/C=C\C[C@@H]1[C@@H](c2ccc(C(C)(C)C)cc2)[C@H](O)C[C@H]1Cl |  |  |  |  | EC50 (hEP2/Gqs5; [2]): > 10000 nM; EC50 (hEP3A/Gqi5; [3]): > 10000 nM |
| CC(C)(C)C(O)c1ccc([C@@H]2[C@@H](CCCCCCC(=O)O)[C@H](Cl)C[C@H]2O)cc1 (stereo partly shown) |  |  |  |  | IC50 (human EP2 receptors; read-out: BINDING IC50 HEP2): 3630 nM; EC50 (hEP2/Gqs5; [2]): 1260 nM; EC50 (hEP4/Gqs5; [4]): > 10000 nM |
| CCCCCC(O)c1ccc(N2C(=O)CC[C@@H]2COCc2cccc(C(=O)O)c2)cc1 (stereo partly shown) | > 10000 | > 10000 | 517 |  |  |
| CCCC(O)c1ccc(N2C(=O)CC[C@@H]2COCc2ccc(C(=O)O)s2)cc1 (stereo partly shown) | > 10000 | 426 | 27 | 1640 |  |
| CCCCCC(=O)c1ccc(N2C(=O)CC[C@@H]2COCc2ccc(C(=O)O)s2)cc1 | > 10000 | 215 | 8 | 163 |  |
| CC(C)(C)c1ccc(N2C(=O)CC[C@@H]2COCCCCC(=O)O)cc1 | > 10000 | > 10000 |  |  | EC50 (hEP4/Gqs5; [6]): > 10000 nM |
| CC(C)(C)c1ccc(N2C(=O)CC[C@@H]2COCc2cccc(C(=O)O)c2)cc1 | > 10000 | > 10000 |  |  | EC50 (hEP4/Gqs5; [6]): > 10000 nM |
| CCCCCC(O)c1ccc(N2C(=O)CC[C@@H]2COCc2ccc(C(=O)O)o2)cc1 (stereo partly shown) | > 10000 | 388 | 26 | 2030 | EC50 (hEP3A/Gqi5; [7]): 1930 nM |
| CC(C)C(O)c1ccc(N2C(=O)CC[C@@H]2COCc2ccc(C(=O)O)o2)cc1 (stereo partly shown) | > 10000 | 7670 | 1220 | > 10000 |  |
| O=C(O)c1ccc(COC[C@H]2CCC(=O)N2c2ccc(C(O)Cc3ccccc3)cc2)o1 (stereo partly shown) | > 10000 | 1230 | 148 | 2290 |  |
| CCCCC(O)c1ccc(N2C(=O)CC[C@@H]2COCc2ccc(C(=O)O)s2)cc1 (stereo partly shown) | > 10000 | 212 | 8 | 387 |  |
| CCCCCC(O)c1ccc(N2C(=O)CC[C@@H]2COCc2ccc(C(=O)O)s2)cc1 (single isomer, unassigned) [drawing 149] | 6030 |  | 1.5 | 116 | EC50 (hEP3A/Gqi5; [7]): 1200 nM; EC50 (hEP4/Gqs5; [6]): > 10000 nM |
| CCCCCC(O)c1ccc(N2C(=O)CC[C@@H]2CCCc2ccc(C(=O)O)s2)cc1 (single isomer, unassigned) [drawing 150] | > 10000 | 6 |  |  | EC50 (hEP3A/Gqi5; [7]): 12 nM; EC50 (hEP4/Gqs5; [6]): > 10000 nM |
| CCCCCCC(O)c1ccc(N2C(=O)CC[C@@H]2COCc2ccc(C(=O)O)s2)cc1 (single isomer, unassigned) [drawing 153] | 3290 |  | 4 |  | EC50 (hEP3A/Gqi5; [7]): 621 nM |
| CCCCCCC(O)c1ccc(N2C(=O)CC[C@@H]2COCc2ccc(C(=O)O)s2)cc1 (single isomer, unassigned) [drawing 181] | 3290 | 49 | 4 | 201 | EC50 (hEP3A/Gqi5; [7]): 621 nM |
| CCCCCC(O)c1ccc(N2C(=O)CC[C@@H]2/C=C/Cc2ccc(C(=O)O)s2)cc1 (stereo partly shown) [drawing 144] | > 10000 | 226 | 15 | 1380 |  |
| CCCCCC(O)c1ccc(N2C(=O)CC[C@@H]2COc2ccc(C(=O)O)cc2)cc1 (stereo partly shown) [drawing 157] | 8750 |  |  | 22700 |  |
| CCCCCC(O)c1ccc(N2C(=O)CC[C@@H]2/C=C/Cc2ccc(C(=O)O)s2)cc1 (stereo partly shown) [drawing 172] |  |  |  |  | EC50 (hEP3A/Gqi5; [7]): 1410 nM |
| CCCCCC(O)c1ccc(N2C(=O)CC[C@@H]2COc2ccc(C(=O)O)cc2)cc1 (stereo partly shown) [drawing 185] | 8750 | 7280 |  | 22700 |  |
